Experimental data reported in ChEMBL document CHEMBL1125385, “Novel inhibitors of prolyl 4-hydroxylase. 2. 5-Amide substituted pyridine-2-carboxylic acids” (J Med Chem, 1992).

Tested on: Prolyl 4-hydroxylase (Gallus gallus); call rule not given here
Experiment: Inhibition of Prolyl 4-hydroxylase activity in cultured embryonic chick tendon cells; NA=Not active

Row | IC50 | SMILES
1 | Not Active | O=C(O)c1ccc(NC(=O)c2ccccc2F)cn1
2 | Not Active | O=C(Nc1ccccc1Cl)c1ccc(C(=O)O)nc1
3 | Not Active | COc1ccccc1NC(=O)c1ccc(C(=O)O)nc1
4 | Not Active | COc1ccc(NC(=O)c2ccc(C(=O)O)nc2)c(OC)c1
5 | Not Active | Cc1ccc(NC(=O)c2ccc(C(=O)O)nc2)cc1
6 | Not Active | CN(C)c1ccc(NC(=O)c2ccc(C(=O)O)nc2)cc1
7 | Not Active | CN(C)c1ccc(C(=O)Nc2ccc(C(=O)O)nc2)cc1
8 | Not Active | CCOc1ccc(C(=O)Nc2ccc(C(=O)O)nc2)cc1
